# Reference: patent US6762174B1 (priority 1998, dated 2004)
# Read-outs that look alike come from different tables or passages of the source.
# Legend:
# [1] = test system: MT-1 breast cancer xenograft; assay: MT-1 breast cancer xenograft, second experiment: BT on day 3 only; format: in vivo, male nude mice
# Experimental: In the second experiment with MT-1 breast cancer, BT was administered on day three only, at doses of […] to 3 micrograms/kg. The T/C ratio of treated vs. control median RTV was measured on day 28. […] The other doses of BT (30 ng, 3 ng, 0.3 ng, and 0.03 ng) alone were not effective in this experiment. These observations of RTV were made only through day 28.
# [2] = test system: MT-1 breast cancer xenograft; assay: MT-1 breast cancer xenograft: BT by intratumor injection; format: in vivo, male nude mice; set-up: Median RTV: unit not given here; conditions: for Median RTV: BT 30 ng intratumor
# Experimental: In a parallel experiment, a low dose of 30 ng of BT was injected directly into the tumor on days 3, 17 and 31. The T/C for RTV measured on day 35 was 50%.
# [3] = test system: MT-1 breast cancer xenograft
# [4] = test system: B16 melanoma; format: in vivo, female BDF1 mice
# [5] = test system: MOPC-315 myeloma; assay: MOPC-315 Myeloma study #1: β-alethine ip day 2 (1 × 10^6 tumor cells)
compound,measurement,setting,value
"NCCC(=O)NCCSSCCNC(=O)CCN [BT, β-alethine]",effectiveness,"[1]; BT 30 ng, 3 ng, 0.3 ng, 0.03 ng alone",not effective
same,T/C ratio of median RTV,"[1]; BT 300 ng/kg day 3, day 28",42%
same,Median RTV,"[1]; BT 300 ng/kg on Day 3, day 8",1.105
same,Median RTV,"[1]; BT 300 ng/kg on Day 3, day 14",1.243
same,Median RTV,"[1]; BT 300 ng/kg on Day 3, day 21",2.532
same,Median RTV,"[1]; BT 300 ng/kg on Day 3, day 28",3.317
same,T/C ratio of median RTV,"[1]; BT 3 ug/kg day 3, day 28",32%
same,Median RTV,"[1]; BT 3 ug/kg on Day 3, day 8",1.012
same,Median RTV,"[1]; BT 3 ug/kg on Day 3, day 14",0.955
same,Median RTV,"[1]; BT 3 ug/kg on Day 3, day 21",1.756
same,Median RTV,"[1]; BT 3 ug/kg on Day 3, day 28",2.526
same,T/C for RTV,"[2]; 30 ng BT into the tumor days 3, 17, 31, day 35",50%
same,Median RTV,[2]; day 8,1.27
same,Median RTV,[2]; day 11,1.40
same,Median RTV,[2]; day 14,1.77
same,Median RTV,[2]; day 17,2.61
same,Median RTV,[2]; day 21,3.74
same,Median RTV,[2]; day 24,4.34
same,Median RTV,[2]; day 28,4.93
same,Median RTV,[2]; day 31,6.37
same,Median RTV,[2]; day 35,8.01
same,T/C RTV d 49,[3]; BT 30 mg/kg,72%
same,T/C RTV d 59,[3]; BT 30 mg/kg,165%
same,effectiveness,[3]; BT 30 mg/kg alone,not effective
same,WBC d 46,"[3]; mouse, in vivo",14.4 10^6/mL
same,Primary Tumor Size (Median RTV),"[4]; BT 30 pg/kg alone, day 0",1
same,Primary Tumor Size (Median RTV),"[4]; BT 30 pg/kg alone, day 4",1.0
same,Primary Tumor Size (Median RTV),"[4]; BT 30 pg/kg alone, day 7",1.8
same,Primary Tumor Size (Median RTV),"[4]; BT 30 pg/kg alone, day 10",6.0
same,Primary Tumor Size (Median RTV),"[4]; BT 30 pg/kg alone, day 14",17.3
same,Primary Tumor Size (Median RTV),"[4]; BT 30 pg/kg alone, day 17",62.0
same,Primary Tumor Size (Median RTV),"[4]; BT 30 ng/kg alone, day 0",1
same,Primary Tumor Size (Median RTV),"[4]; BT 30 ng/kg alone, day 4",1.0
same,Primary Tumor Size (Median RTV),"[4]; BT 30 ng/kg alone, day 7",3.1
same,Primary Tumor Size (Median RTV),"[4]; BT 30 ng/kg alone, day 10",8.1
same,Primary Tumor Size (Median RTV),"[4]; BT 30 ng/kg alone, day 14",15.7
same,Primary Tumor Size (Median RTV),"[4]; BT 30 ng/kg alone, day 17",32.4
same,Primary Tumor Size (Median RTV),"[4]; BT 30 ug/kg alone, day 0",1
same,Primary Tumor Size (Median RTV),"[4]; BT 30 ug/kg alone, day 4",1.0
same,Primary Tumor Size (Median RTV),"[4]; BT 30 ug/kg alone, day 7",1.3
same,Primary Tumor Size (Median RTV),"[4]; BT 30 ug/kg alone, day 10",5.5
same,Primary Tumor Size (Median RTV),"[4]; BT 30 ug/kg alone, day 14",16.6
same,Primary Tumor Size (Median RTV),"[4]; BT 30 ug/kg alone, day 17",30.4
same,Primary Tumor Size (Median RTV),"[4]; BT 30 mg/kg alone, day 0",1
same,Primary Tumor Size (Median RTV),"[4]; BT 30 mg/kg alone, day 4",1.7
same,Primary Tumor Size (Median RTV),"[4]; BT 30 mg/kg alone, day 7",3.3
same,Primary Tumor Size (Median RTV),"[4]; BT 30 mg/kg alone, day 10",7.5
same,Primary Tumor Size (Median RTV),"[4]; BT 30 mg/kg alone, day 14",23.2
same,Primary Tumor Size (Median RTV),"[4]; BT 30 mg/kg alone, day 17",34.8
same,Primary Tumor Size (Median RTV),"[4]; BT 30 fg/kg alone, day 0",1
same,Primary Tumor Size (Median RTV),"[4]; BT 30 fg/kg alone, day 4",1.7
same,Primary Tumor Size (Median RTV),"[4]; BT 30 fg/kg alone, day 7",2.4
same,Primary Tumor Size (Median RTV),"[4]; BT 30 fg/kg alone, day 10",7.0
same,Primary Tumor Size (Median RTV),"[4]; BT 30 fg/kg alone, day 14",16.1
same,Primary Tumor Size (Median RTV),"[4]; BT 30 fg/kg alone, day 17",41.6
same,Animals Surviving,"[5]; BT 3 ng/kg, day 10",10
same,Animals Surviving,"[5]; BT 3 ng/kg, day 11",10
same,Animals Surviving,"[5]; BT 3 ng/kg, day 12",10
same,Animals Surviving,"[5]; BT 3 ng/kg, day 13",9
same,Animals Surviving,"[5]; BT 3 ng/kg, day 14",8
same,Animals Surviving,"[5]; BT 3 ng/kg, day 15",7
same,Animals Surviving,"[5]; BT 3 ng/kg, day 16",6
same,Animals Surviving,"[5]; BT 3 ng/kg, day 17",4
same,Animals Surviving,"[5]; BT 3 ng/kg, day 18",3
same,Animals Surviving,"[5]; BT 3 ng/kg, day 19",3
same,Animals Surviving,"[5]; BT 3 ng/kg, day 20",2
same,Animals Surviving,"[5]; BT 3 ng/kg, day 21",0
same,Animals Surviving,"[5]; BT 100 μg/kg, day 10",10
same,Animals Surviving,"[5]; BT 100 μg/kg, day 11",10
same,Animals Surviving,"[5]; BT 100 μg/kg, day 12",10
same,Animals Surviving,"[5]; BT 100 μg/kg, day 13",10
same,Animals Surviving,"[5]; BT 100 μg/kg, day 14",7
same,Animals Surviving,"[5]; BT 100 μg/kg, day 15",6
same,Animals Surviving,"[5]; BT 100 μg/kg, day 16",6
same,Animals Surviving,"[5]; BT 100 μg/kg, day 17",5
same,Animals Surviving,"[5]; BT 100 μg/kg, day 18",3
same,Animals Surviving,"[5]; BT 100 μg/kg, day 19",3
same,Animals Surviving,"[5]; BT 100 μg/kg, day 20",1
same,Animals Surviving,"[5]; BT 100 μg/kg, day 21",0
same,Animals Surviving,"[5]; BT 3 mg/kg, day 10",10
same,Animals Surviving,"[5]; BT 3 mg/kg, day 11",10
same,Animals Surviving,"[5]; BT 3 mg/kg, day 12",10
same,Animals Surviving,"[5]; BT 3 mg/kg, day 13",10
same,Animals Surviving,"[5]; BT 3 mg/kg, day 14",7
same,Animals Surviving,"[5]; BT 3 mg/kg, day 15",4
same,Animals Surviving,"[5]; BT 3 mg/kg, day 16",4
same,Animals Surviving,"[5]; BT 3 mg/kg, day 17",3
same,Animals Surviving,"[5]; BT 3 mg/kg, day 18",2
same,Animals Surviving,"[5]; BT 3 mg/kg, day 19",2
same,Animals Surviving,"[5]; BT 3 mg/kg, day 20",1
same,Animals Surviving,"[5]; BT 3 mg/kg, day 21",1
same,Animals Surviving,"[5]; BT 3 mg/kg, day 22",1
same,Animals Surviving,"[5]; BT 3 mg/kg, day 23",1
same,Animals Surviving,"[5]; BT 3 mg/kg, day 24",0
same,Animals Surviving,"[5]; BT 30 fg/kg, day 10",10
same,Animals Surviving,"[5]; BT 30 fg/kg, day 11",10
same,Animals Surviving,"[5]; BT 30 fg/kg, day 12",10
same,Animals Surviving,"[5]; BT 30 fg/kg, day 13",8
same,Animals Surviving,"[5]; BT 30 fg/kg, day 14",5
same,Animals Surviving,"[5]; BT 30 fg/kg, day 15",3
same,Animals Surviving,"[5]; BT 30 fg/kg, day 16",3
same,Animals Surviving,"[5]; BT 30 fg/kg, day 17",3
same,Animals Surviving,"[5]; BT 30 fg/kg, day 18",2
same,Animals Surviving,"[5]; BT 30 fg/kg, day 19",2
same,Animals Surviving,"[5]; BT 30 fg/kg, day 20",0
same,Animals Surviving,"[5]; BT 30 fg/kg, day 21",0
